Experiment: excess molar enthalpy (molar enthalpy of mixing); xn = mol fraction of the nth substance listed
Settings: 313.15 K, Fluid (supercritical or subcritical phases), Flow calorimetry

CCOC(C)=O [ethyl acetate] + O=C=O
Settings | excess molar enthalpy [kcal/mol]
9000 kPa, x2 = 0.087 | -0.108
9000 kPa, x2 = 0.172 | -0.226
9000 kPa, x2 = 0.256 | -0.325
9000 kPa, x2 = 0.381 | -0.46
9000 kPa, x2 = 0.462 | -0.525
9000 kPa, x2 = 0.542 | -0.603
9000 kPa, x2 = 0.66 | -0.684
9000 kPa, x2 = 0.737 | -0.727
9000 kPa, x2 = 0.814 | -0.713
9000 kPa, x2 = 0.889 | -0.636
9000 kPa, x2 = 0.926 | -0.541
9000 kPa, x2 = 0.963 | -0.379
12000 kPa, x2 = 0.123 | -0.1
12000 kPa, x2 = 0.235 | -0.185
12000 kPa, x2 = 0.338 | -0.243
12000 kPa, x2 = 0.432 | -0.279
12000 kPa, x2 = 0.519 | -0.308
12000 kPa, x2 = 0.599 | -0.327
12000 kPa, x2 = 0.673 | -0.335
12000 kPa, x2 = 0.742 | -0.322
12000 kPa, x2 = 0.806 | -0.302
12000 kPa, x2 = 0.866 | -0.263
12000 kPa, x2 = 0.949 | -0.16
12000 kPa, x2 = 0.975 | -0.0887
15000 kPa, x2 = 0.132 | -0.0865
15000 kPa, x2 = 0.25 | -0.151
15000 kPa, x2 = 0.356 | -0.208
15000 kPa, x2 = 0.452 | -0.242
15000 kPa, x2 = 0.539 | -0.274
15000 kPa, x2 = 0.618 | -0.285
15000 kPa, x2 = 0.724 | -0.275
15000 kPa, x2 = 0.788 | -0.245
15000 kPa, x2 = 0.818 | -0.227
15000 kPa, x2 = 0.875 | -0.182
15000 kPa, x2 = 0.927 | -0.124
15000 kPa, x2 = 0.953 | -0.0896
18000 kPa, x2 = 0.071 | -0.0617
18000 kPa, x2 = 0.137 | -0.101
18000 kPa, x2 = 0.259 | -0.166
18000 kPa, x2 = 0.367 | -0.201
18000 kPa, x2 = 0.463 | -0.224
18000 kPa, x2 = 0.55 | -0.237
18000 kPa, x2 = 0.629 | -0.24
18000 kPa, x2 = 0.7 | -0.225
18000 kPa, x2 = 0.825 | -0.18
18000 kPa, x2 = 0.88 | -0.145
18000 kPa, x2 = 0.931 | -0.0989
18000 kPa, x2 = 0.955 | -0.0746
